Data as given in publication PMC11277489, “Novel Piperazine Derivatives of Vindoline as Anticancer Agents” (International Journal of Molecular Sciences, 2024).

The molecules below were run on NCI-H322M (assay: NCI60 one-dose screen (10 μM), Non-small Cell Lung Cancer). Conditions: Homo sapiens, 10 μM, Non-small Cell Lung Cancer, read-out: Growth percent rate.
Format: cell-based

Structure (SMILES) | activity at 10 µM
CC[C@]12C=CCN3CC[C@@]4(c5ccc(OC)cc5N(C)[C@H]4[C@@](O)(C(=O)OC)[C@@H]1OC(=O)CCC(=O)N1CCN(Cc4ccc(C(F)(F)F)cc4)CC1)[C@@H]32 [Compound 29] | 35.4%

These molecules were tested on HCT-116 (assay: NCI60 one-dose screen (10 μM), Colon Cancer). Conditions: Homo sapiens; 10 μM; HCT-116, Colon Cancer; read-out: Growth percent rate.
Format: cell-based

Structure (SMILES) | activity at 10 µM
CC[C@]12C=CCN3CC[C@@]4(c5ccc(OC)cc5N(C)[C@H]4[C@@](O)(C(=O)OC)[C@@H]1OC(=O)CCC(=O)N1CCN(Cc4ccc(C(F)(F)F)cc4)CC1)[C@@H]32 [Compound 29] | 7.59%

The molecules below were run on SW-620 (assay: NCI60 one-dose screen (10 μM), Colon Cancer). Conditions: Homo sapiens; 10 μM; SW-620, Colon Cancer; read-out: Growth percent rate.
Format: cell-based

Structure (SMILES) | activity at 10 µM
CC[C@]12C=CCN3CC[C@@]4(c5ccc(OC)cc5N(C)[C@H]4[C@@](O)(C(=O)OC)[C@@H]1OC(=O)CCC(=O)N1CCN(Cc4ccc(C(F)(F)F)cc4)CC1)[C@@H]32 [Compound 29] | 9.15%

What follows are molecules tested on HS 578T (assay: NCI60 one-dose screen (10 μM), Breast Cancer). Conditions: Homo sapiens; 10 μM; HS 578T, Breast Cancer; read-out: Growth percent rate.
Format: cell-based

Structure (SMILES) | activity at 10 µM
CC[C@]12C=CCN3CC[C@@]4(c5ccc(OC)cc5N(C)[C@H]4[C@@](O)(C(=O)OC)[C@@H]1OC(=O)CCC(=O)N1CCN(Cc4ccc(C(F)(F)F)cc4)CC1)[C@@H]32 [Compound 29] | 0.42%

These molecules were tested on SF-295 (assay: NCI60 one-dose screen (10 μM), CNS Cancer). Conditions: Homo sapiens; 10 μM; SF-295, CNS Cancer; read-out: Growth percent rate.
Format: cell-based

Structure (SMILES) | activity at 10 µM
CC[C@]12C=CCN3CC[C@@]4(c5ccc(OC)cc5N(C)[C@H]4[C@@](O)(C(=O)OC)[C@@H]1OC(=O)CCC(=O)N1CCN(Cc4ccc(C(F)(F)F)cc4)CC1)[C@@H]32 [Compound 29] | 7.76%

The molecules below were run on SF-539 (assay: NCI60 one-dose screen (10 μM), CNS Cancer). Conditions: Homo sapiens; 10 μM; SF-539, CNS Cancer; read-out: Growth percent rate.
Format: cell-based, human

Structure (SMILES) | activity at 10 µM
CC[C@]12C=CCN3CC[C@@]4(c5ccc(OC)cc5N(C)[C@H]4[C@@](O)(C(=O)OC)[C@@H]1OC(=O)CCC(=O)N1CCN(Cc4ccc(C(F)(F)F)cc4)CC1)[C@@H]32 [Compound 29] | 11.7%

The molecules below were run on KM12 (assay: NCI60 one-dose screen (10 μM), Colon Cancer). Conditions: Homo sapiens; 10 μM; KM12, Colon Cancer; read-out: Growth percent rate.
Format: cell-based, human

Structure (SMILES) | activity at 10 µM
CC[C@]12C=CCN3CC[C@@]4(c5ccc(OC)cc5N(C)[C@H]4[C@@](O)(C(=O)OC)[C@@H]1OC(=O)CCC(=O)N1CCN(Cc4ccc(C(F)(F)F)cc4)CC1)[C@@H]32 [Compound 29] | 3.78%

These molecules were tested on COLO 205 (assay: NCI60 one-dose screen (10 μM), Colon Cancer). Conditions: Homo sapiens; 10 μM; COLO 205, Colon Cancer; read-out: Growth percent rate.
Format: cell-based, human

Structure (SMILES) | activity at 10 µM
CC[C@]12C=CCN3CC[C@@]4(c5ccc(OC)cc5N(C)[C@H]4[C@@](O)(C(=O)OC)[C@@H]1OC(=O)CCC(=O)N1CCN(Cc4ccc(C(F)(F)F)cc4)CC1)[C@@H]32 [Compound 29] | -91%

What follows are molecules tested on CAKI-1 (assay: NCI60 one-dose screen (10 μM), Renal Cancer). Conditions: Homo sapiens; 10 μM; CAKI-1, Renal Cancer; read-out: Growth percent rate.
Format: cell-based

Structure (SMILES) | activity at 10 µM
CC[C@]12C=CCN3CC[C@@]4(c5ccc(OC)cc5N(C)[C@H]4[C@@](O)(C(=O)OC)[C@@H]1OC(=O)CCC(=O)N1CCN(Cc4ccc(C(F)(F)F)cc4)CC1)[C@@H]32 [Compound 29] | 6.02%

What follows are molecules tested on SNB-75 (assay: NCI60 one-dose screen (10 μM), CNS Cancer). Conditions: Homo sapiens; 10 μM; SNB-75, CNS Cancer; read-out: Growth percent rate.
Format: cell-based, human

Structure (SMILES) | activity at 10 µM
CC[C@]12C=CCN3CC[C@@]4(c5ccc(OC)cc5N(C)[C@H]4[C@@](O)(C(=O)OC)[C@@H]1OC(=O)CCC(=O)N1CCN(Cc4ccc(C(F)(F)F)cc4)CC1)[C@@H]32 [Compound 29] | 7.51%

Each molecule was assayed on SN12C (assay: NCI60 one-dose screen (10 μM), Renal Cancer). Conditions: Homo sapiens, 10 μM, Renal Cancer, read-out: Growth percent rate.
Format: cell-based

Structure (SMILES) | activity at 10 µM
CC[C@]12C=CCN3CC[C@@]4(c5ccc(OC)cc5N(C)[C@H]4[C@@](O)(C(=O)OC)[C@@H]1OC(=O)CCC(=O)N1CCN(Cc4ccc(C(F)(F)F)cc4)CC1)[C@@H]32 [Compound 29] | 14.8%

The molecules below were run on LOX IMVI (assay: NCI60 one-dose screen (10 μM), Melanoma). Conditions: Homo sapiens; 10 μM; LOX IMVI, Melanoma; read-out: Growth percent rate.
Format: cell-based, human

Structure (SMILES) | activity at 10 µM
CC[C@]12C=CCN3CC[C@@]4(c5ccc(OC)cc5N(C)[C@H]4[C@@](O)(C(=O)OC)[C@@H]1OC(=O)CCC(=O)N1CCN(Cc4ccc(C(F)(F)F)cc4)CC1)[C@@H]32 [Compound 29] | -7.07%

These molecules were tested on OVCAR-3 (assay: NCI60 one-dose screen (10 μM), Ovarian Cancer). Conditions: Homo sapiens; 10 μM; OVCAR-3, Ovarian Cancer; read-out: Growth percent rate.
Format: cell-based

Structure (SMILES) | activity at 10 µM
CC[C@]12C=CCN3CC[C@@]4(c5ccc(OC)cc5N(C)[C@H]4[C@@](O)(C(=O)OC)[C@@H]1OC(=O)CCC(=O)N1CCN(Cc4ccc(C(F)(F)F)cc4)CC1)[C@@H]32 [Compound 29] | 0.33%

These molecules were tested on IGROV1 (assay: NCI60 one-dose screen (10 μM), Ovarian Cancer). Conditions: Homo sapiens, IGROV-1; 10 μM; IGROV1, Ovarian Cancer; read-out: Growth percent rate.
Format: cell-based

Structure (SMILES) | activity at 10 µM
CC[C@]12C=CCN3CC[C@@]4(c5ccc(OC)cc5N(C)[C@H]4[C@@](O)(C(=O)OC)[C@@H]1OC(=O)CCC(=O)N1CCN(Cc4ccc(C(F)(F)F)cc4)CC1)[C@@H]32 [Compound 29] | -31.2%

These molecules were tested on UACC-257 (assay: NCI60 one-dose screen (10 μM), Melanoma). Conditions: Homo sapiens; 10 μM; UACC-257, Melanoma; read-out: Growth percent rate.
Format: cell-based

Structure (SMILES) | activity at 10 µM
CC[C@]12C=CCN3CC[C@@]4(c5ccc(OC)cc5N(C)[C@H]4[C@@](O)(C(=O)OC)[C@@H]1OC(=O)CCC(=O)N1CCN(Cc4ccc(C(F)(F)F)cc4)CC1)[C@@H]32 [Compound 29] | 22.6%

The molecules below were run on NCI-H522 (assay: NCI60 one-dose screen (10 μM), Non-small Cell Lung Cancer). Conditions: Homo sapiens; 10 μM; NCI-H522, Non-small Cell Lung Cancer; read-out: Growth percent rate.
Format: cell-based

Structure (SMILES) | activity at 10 µM
CC[C@]12C=CCN3CC[C@@]4(c5ccc(OC)cc5N(C)[C@H]4[C@@](O)(C(=O)OC)[C@@H]1OC(=O)CCC(=O)N1CCN(Cc4ccc(C(F)(F)F)cc4)CC1)[C@@H]32 [Compound 29] | 28.2%

Each molecule was assayed on SF-268 (assay: NCI60 one-dose screen (10 μM), CNS Cancer). Conditions: Homo sapiens; 10 μM; SF-268, CNS Cancer; read-out: Growth percent rate.
Format: cell-based

Structure (SMILES) | activity at 10 µM
CC[C@]12C=CCN3CC[C@@]4(c5ccc(OC)cc5N(C)[C@H]4[C@@](O)(C(=O)OC)[C@@H]1OC(=O)CCC(=O)N1CCN(Cc4ccc(C(F)(F)F)cc4)CC1)[C@@H]32 [Compound 29] | 14.6%

These molecules were tested on TK-10 (assay: NCI60 one-dose screen (10 μM), Renal Cancer). Conditions: Homo sapiens; 10 μM; TK-10, Renal Cancer; read-out: Growth percent rate.
Format: cell-based

Structure (SMILES) | activity at 10 µM
CC[C@]12C=CCN3CC[C@@]4(c5ccc(OC)cc5N(C)[C@H]4[C@@](O)(C(=O)OC)[C@@H]1OC(=O)CCC(=O)N1CCN(Cc4ccc(C(F)(F)F)cc4)CC1)[C@@H]32 [Compound 29] | 45.7%

What follows are molecules tested on CCRF-CEM (assay: NCI60 one-dose screen (10 μM), Leukemia). Conditions: Homo sapiens, 10 μM, Leukemia, read-out: Growth percent rate.
Format: cell-based

Structure (SMILES) | activity at 10 µM
CC[C@]12C=CCN3CC[C@@]4(c5ccc(OC)cc5N(C)[C@H]4[C@@](O)(C(=O)OC)[C@@H]1OC(=O)CCC(=O)N1CCN(Cc4ccc(C(F)(F)F)cc4)CC1)[C@@H]32 [Compound 29] | 3.8%

The molecules below were run on MDA-MB-435 (assay: NCI60 one-dose screen (10 μM), Melanoma). Conditions: Homo sapiens; 10 μM; MDA-MB-435, Melanoma; read-out: Growth percent rate.
Format: cell-based

Structure (SMILES) | activity at 10 µM
CC[C@]12C=CCN3CC[C@@]4(c5ccc(OC)cc5N(C)[C@H]4[C@@](O)(C(=O)OC)[C@@H]1OC(=O)CCC(=O)N1CCN(Cc4ccc(C(F)(F)F)cc4)CC1)[C@@H]32 [Compound 29] | 3.59%

What follows are molecules tested on A549/ATCC (assay: NCI60 one-dose screen (10 μM), Non-small Cell Lung Cancer). Conditions: Homo sapiens; 10 μM; A549/ATCC, Non-small Cell Lung Cancer; read-out: Growth percent rate.
Format: cell-based

Structure (SMILES) | activity at 10 µM
CC[C@]12C=CCN3CC[C@@]4(c5ccc(OC)cc5N(C)[C@H]4[C@@](O)(C(=O)OC)[C@@H]1OC(=O)CCC(=O)N1CCN(Cc4ccc(C(F)(F)F)cc4)CC1)[C@@H]32 [Compound 29] | 25.3%
